Source: patent US20220380347A1, “INHIBITORS OF CYSTEINE PROTEASES AND METHODS OF USE THEREOF” (Pardes Biosciences, Inc., priority 2020, published 2022)
Like-named read-outs stand apart in the source and are kept apart here.

Columns and labels:
229E Mpro = 229E Mpro (Human coronavirus 229E, UniProt P0C6X1); test: 229E Mpro enzymatic assay (standard methods, SARS-CoV2 Mpro assay given as exemplary); assay type: biochemical, human coronavirus (HCov) 229E
Outline: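 IC50 for 229E Mpro by standard methods; exemplary SARS-CoV-2 protocol used C-His6-tagged Mpro from E. coli, 25 nM enzyme, 25 μM substrate (Km 13.5 μM), in Tris-HCl pH 7.3, NaCl, EDTA, TCEP, 0.1% BSA. Inhibition normalised to no-compound and full-effect controls; four-parameter fit.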

[1] = target: COVID-19 (nCoV-2019, SARS-CoV2) Mpro (Severe acute respiratory syndrome coronavirus 2, UniProt P0DTD1); test: COVID-19 (nCoV-2019, SARS-CoV2) Mpro enzymatic assay; assay type: biochemical; conditions: 25 nM Mpro, 25 μM substrate; read-out: COVID-19 Mpro IC50
HCoV 229E = HCoV 229E cytopathic effect (CPE) assay, CellTiter Glo; assay type: cell-based, human coronavirus (HCov) 229E; conditions: protection of virus-induced CPE
Experimental: Example 238: Evaluation of antiviral activity of compounds against human coronavirus (HCov) 229E and OC43 in the cytopathic effect (CPE) assays
Compounds were assayed using standard methods against multiple coronaviral strains, including HCoV 229E and OC43 strains. The antiviral activity of compounds was calculated based on the protection of the virus-induced CPE at each concentration normalized by the virus control.
Cytopathic effect (CPE) was measured by CellTiter Glo following the manufacturer's manual. The antiviral activity of compounds was calculated based on the protection of the virus-induced CPE at each concentration normalized by the virus control.
Cell viability was measured with CellTiter Glo.

HCov OC43 = test: HCoV OC43 cytopathic effect (CPE) assay, CellTiter Glo; assay type: cell-based, human coronavirus (HCov) OC43
[2] = Betacoronavirus 1, OC43, read-out: OC43 IC50 (uM) MEDIAN, median
[3] = read-out: OC43 IC50 (uM) MEDIAN, median

Chain of 229E Mpro (P0C6X1 2966-3267): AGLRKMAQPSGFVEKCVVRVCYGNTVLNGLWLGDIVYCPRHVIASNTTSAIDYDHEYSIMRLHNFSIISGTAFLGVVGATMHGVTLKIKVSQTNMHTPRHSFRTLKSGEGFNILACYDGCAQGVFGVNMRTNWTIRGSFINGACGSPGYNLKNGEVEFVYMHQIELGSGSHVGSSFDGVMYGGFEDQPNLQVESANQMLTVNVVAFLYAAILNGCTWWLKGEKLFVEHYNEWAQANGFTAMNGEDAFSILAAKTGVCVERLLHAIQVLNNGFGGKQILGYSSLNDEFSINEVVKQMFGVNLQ

Structure (SMILES) | EC50 (229E Mpro; 229E Mpro EC50) | IC50 [1] | EC50 (HCoV 229E; unidentified human coronavirus) | IC50 (HCov OC43; [2]) | EC50 (229E Mpro; read-out: 229E Mpro EC50) | EC50 (HCoV 229E) | IC50 (HCov OC43; [3]) | IC50 (HCov OC43; read-out: OC43 IC50 (uM) MEDIAN, median, listed as 284 Isomer 2) | IC50 (HCov OC43; read-out: OC43 IC50 (uM) MEDIAN, median, listed as 435 Isomer 1) | IC50 (HCov OC43; read-out: OC43 IC50 (uM) MEDIAN, median, listed as 293 Isomer 1) | IC50 (HCov OC43; read-out: OC43 IC50 (uM) MEDIAN, median, listed as 427 Isomer 2)
CC(C)(O)CNC(=O)C(c1cccnc1)N(C(=O)[C@H]1CCCN1C#N)c1ccc(C(C)(C)C)cc1 (stereo partly shown) [Compound 1119] | < 2000 nM | 2000 to 10000 nM | 2000 to 10000 nM | 2 to 10 µM | – | – | – | – | – | – | –
N#CN1C[C@H](O)C[C@@H]1C(=O)N(c1ccc(C(F)(C(F)(F)F)C(F)(F)F)cc1)C(C(=O)NC1CCCCC1)c1cccnc1 (single isomer, unassigned) [Compound 779 Isomer 1] | < 2000 nM | < 2000 nM | 2000 to 10000 nM | < 2 µM | – | – | – | – | – | – | –
CN(C)C(=O)CNC(=O)C(c1cccnc1)N(C(=O)[C@H]1CCCN1C#N)c1ccc(C(C)(C)C)cc1 (stereo partly drawn) [Compound 415, (2R)—N-(4-(tert-butyl)phenyl)-1-cyano-N-(2-((2-(dimethylamino)-2-oxoethyl)amino)-2-oxo-1-(pyridin-3-yl)ethyl)pyrrolidine-2-carboxamide] | < 2000 nM | 2000 to 10000 nM | 2000 to 10000 nM | 2 to 10 µM | – | – | – | – | – | – | –
Cc1c[nH]c2cc(N(C(=O)[C@H]3C[C@@H](O)CN3C#N)C(C(=O)NC3CCC(F)(F)CC3)c3cncc(F)c3)ccc12 (single isomer, unassigned) [Compound 747b Isomer 1] | < 2000 nM | < 2000 nM | 2000 to 10000 nM | < 2 µM | – | – | – | – | – | – | –
CC(C)(C)c1ccc(N(C(=O)[C@H]2C[C@@H](O)CN2C#N)C(C(=O)NC2CCCC2)c2cccnc2)cc1 (single isomer, unassigned) [595 Isomer 1] | < 2000 nM | 2000 to 10000 nM | 2000 to 10000 nM | 2 to 10 µM | – | – | – | – | – | – | –
COCCNC(=O)C(c1cccnc1)N(C(=O)[C@H]1C[C@@H](O)CN1C#N)c1ccc(C(C)(C)C)cc1 (single isomer, unassigned) [627 Isomer 2] | – | 2000 to 10000 nM | – | – | < 2000 nM | 2000 to 10000 nM | 10 to 30 µM | – | – | – | –
N#CN1C[C@H](O)C[C@@H]1C(=O)N(c1ccc(C2CC2)cc1)C(C(=O)NC1CCCCC1)c1cccnc1 (single isomer, unassigned) [723 Isomer 1] | < 2000 nM | < 2000 nM | < 2000 nM | < 2 µM | – | – | – | – | – | – | –
CC(C)(C)c1ccc(N(C(=O)[C@H]2CCCN2C#N)C(C(=O)NCC(=O)N2CCOCC2)c2cccnc2)cc1 (stereo partly drawn) [Compound 403, (2R)—N-(4-(tert-butyl)phenyl)-1-cyano-N-(2-((2-morpholino-2-oxoethyl)amino)-2-oxo-1-(pyridin-3-yl)ethyl)pyrrolidine-2-carboxamide] | < 2000 nM | < 2000 nM | 2000 to 10000 nM | 2 to 10 µM | – | – | – | – | – | – | –
CC(C)(C)c1ccc(N(C(=O)[C@H]2C[C@@H](F)CN2C#N)C(C(=O)NC2CCCCC2)c2cccnc2)cc1 (single isomer, unassigned) [Compound 870 Isomer 1] | < 2000 nM | < 2000 nM | < 2000 nM | < 2 µM | – | – | – | – | – | – | –
N#CN1C[C@H](O)C[C@@H]1C(=O)N(c1ccc(C2CC2)cc1F)C(C(=O)NC1CCCCC1)c1cccnc1 (single isomer, unassigned) [Compound 763 Isomer 2] | 2000 to 10000 nM | 10000 to 30000 nM | < 2000 nM | – | – | – | 2 to 10 µM | – | – | – | –
CC1(O)C[C@H](C(=O)N(c2ccc(C(C)(C)C)cc2)C(C(=O)NC2CCCCC2)c2cccnc2)N(C#N)C1 (single isomer, unassigned) [Compound 284 Isomer 2] | < 2000 nM | < 2000 nM | < 2000 nM | – | – | – | – | < 2 µM | – | – | –
CN(C)CCNC(=O)C(c1cccnc1)N(C(=O)[C@H]1CCCN1C#N)c1ccc(C(C)(C)C)cc1 (single isomer, unassigned) [Compound 435 Isomer 1] | < 2000 nM | 2000 to 10000 nM | 2000 to 10000 nM | – | – | – | – | – | 2 to 10 µM | – | –
Cn1cnnc1C(C(=O)NC1CCCCC1)N(C(=O)[C@H]1C[C@@H](O)CN1C#N)c1ccc(C(C)(C)C)cc1 (single isomer, unassigned) [659 Isomer 1] | < 2000 nM | 2000 to 10000 nM | < 2000 nM | – | – | – | 10 to 30 µM | – | – | – | –
CO[C@H]1C[C@H](C(=O)N(c2ccc(C(C)(C)C)cc2)C(C(=O)NC2CCCCC2)c2cccnc2)N(C#N)C1 (single isomer, unassigned) [Compound 293 Isomer 1] | < 2000 nM | < 2000 nM | < 2000 nM | – | – | – | – | – | – | < 2 µM | –
N#CN1C[C@H](O)C[C@@H]1C(=O)N(c1ccc(C2CC2)cc1)C(C(=O)NC1CCCCC1)c1cccnc1 (single isomer, unassigned) [723 Isomer 2] | 2000 to 10000 nM | 10000 to 30000 nM | – | – | – | 2000 to 10000 nM | 2 to 10 µM | – | – | – | –
CC(C)(C)c1ccc(N(C(=O)[C@H]2C[C@@H](O)CN2C#N)C(C(=O)NC2CCOCC2)c2cccnc2)cc1 (single isomer, unassigned) [619 Isomer 2] | – | 2000 to 10000 nM | – | – | < 2000 nM | < 2000 nM | 2 to 10 µM | – | – | – | –
CN1CCN(C(=O)C(c2cccnc2)N(C(=O)[C@H]2CCCN2C#N)c2ccc(C(C)(C)C)cc2)CC1=O (stereo partly shown) [Compound 969] | < 2000 nM | < 2000 nM | 2000 to 10000 nM | 2 to 10 µM | – | – | – | – | – | – | –
Cc1nc2ccc(N(C(=O)[C@H]3C[C@@H](O)CN3C#N)C(C(=O)NC3CCCCC3)c3cccnc3)cc2[nH]1 (stereo partly drawn) [Compound 759, (2R,4R)-1-cyano-N-(2-(cyclohexylamino)-2-oxo-1-(pyridin-3-yl)ethyl)-4-hydroxy-N-(2-methyl-1H-benzo[d]imidazol-6-yl)pyrrolidine-2-carboxamide] | > 30000 nM | > 30000 nM | < 2000 nM | > 30 µM | – | – | – | – | – | – | –
CC(C)(C)c1ccc(N(C(=O)[C@H]2C[C@@H](Oc3ccccc3)CN2C#N)C(C(=O)NC2CCCCC2)c2cccnc2)cc1 (single isomer, unassigned) [307 Isomer 1] | < 2000 nM | < 2000 nM | < 2000 nM | < 2 µM | – | – | – | – | – | – | –
COCCCNC(=O)C(c1cccnc1)N(C(=O)[C@H]1C[C@@H](O)CN1C#N)c1ccc(C(C)(C)C)cc1 (single isomer, unassigned) [647 Isomer 2] | – | < 2000 nM | 2000 to 10000 nM | – | < 2000 nM | – | 2 to 10 µM | – | – | – | –
COC(C)(C)CNC(=O)C(c1cccnc1)N(C(=O)[C@H]1CCCN1C#N)c1ccc(C(C)(C)C)cc1 (single isomer, unassigned) [Compound 427 Isomer 2] | < 2000 nM | < 2000 nM | < 2000 nM | – | – | – | – | – | – | – | 2 to 10 µM
CC(C)(C)c1ccc(N(C(=O)[C@H]2CCCN2C#N)C(C(=O)N2CC(F)C2)c2cccnc2)cc1 (stereo partly drawn) [Compound 952, (2R)—N-(4-(tert-butyl)phenyl)-1-cyano-N-(2-(3-fluoroazetidin-1-yl)-2-oxo-1-(pyridin-3-yl)ethyl)pyrrolidine-2-carboxamide] | < 2000 nM | 2000 to 10000 nM | 2000 to 10000 nM | 2 to 10 µM | – | – | – | – | – | – | –
CC(C)(C)c1ccc(N(C(=O)[C@H]2C[C@@H](O)CN2C#N)C(C(=O)NC2CCCCC2)c2c[nH]nn2)cc1 (stereo partly drawn) [Compound 663, (2R,4R)—N-(4-(tert-butyl)phenyl)-1-cyano-N-(2-(cyclohexylamino)-2-oxo-1-(1H-1,2,3-triazol-4-yl)ethyl)-4-hydroxypyrrolidine-2-carboxamide] | < 2000 nM | 2000 to 10000 nM | < 2000 nM | 2 to 10 µM | – | – | – | – | – | – | –
CC(C)(C)c1ccc(N(C(=O)[C@H]2C[C@@H](O)CN2C#N)C(C(=O)NCCN2CCOCC2)c2cccnc2)cc1 (single isomer, unassigned) [587 Isomer 2] | – | 2000 to 10000 nM | – | – | < 2000 nM | 2000 to 10000 nM | 2 to 10 µM | – | – | – | –
CC(C)(C)c1ccc(N(C(=O)[C@H]2C[C@@H](O)CN2C#N)C(C(=O)NC2CCOCC2)c2cccnc2)cc1 (single isomer, unassigned) [619 Isomer 1] | < 2000 nM | < 2000 nM | 2000 to 10000 nM | < 2 µM | – | – | – | – | – | – | –
N#CN1C[C@H](O)C[C@@H]1C(=O)N(c1ccc(S(F)(F)(F)(F)F)cc1)C(C(=O)NC1CCCCC1)c1cccnc1 (single isomer, unassigned) [Compound 791 Isomer 2] | – | 2000 to 10000 nM | < 2000 nM | – | < 2000 nM | – | < 2 µM | – | – | – | –
N#CN1C[C@H](O)C[C@@H]1C(=O)N(c1ccc2c(c1)NCCC2)C(C(=O)NC1CCCCC1)c1cccnc1 (single isomer, unassigned) [Compound 755 Isomer 1] | < 2000 nM | < 2000 nM | < 2000 nM | < 2 µM | – | – | – | – | – | – | –
COCCNC(=O)C(c1cccnc1)N(C(=O)[C@H]1C[C@@H](O)CN1C#N)c1ccc(C(C)(C)C)cc1 (single isomer, unassigned) [627 Isomer 1] | < 2000 nM | < 2000 nM | 2000 to 10000 nM | – | – | – | < 2 µM | – | – | – | –
